According to patent publication US20240207202A1, “COMBINATION THERAPIES TARGETING MITOCHONDRIAL BIOGENESIS FOR CANCER THERAPY” (The Wistar Institute of Anatomy and Biology, priority 2015, published 2024):

Legend:
[1] = system: mitochondrial DNA copy number; assay: Mitochondrial DNA copy number; assay type: cell-based, human; details: WM9, Gamitrinib 1 μM combined with PLX4720 and PD0325901 or LGX818 and MEK162
Procedure: Mitochondria DNA copy number was measured by the ratio of a mitochondrial gene, mtDNA-3, and a nuclear gene, 18S rRNA. The mtDNA-3/18S rRNA ratio was quantified by qRT-PCR on an Applied Biosystems 7500 Fast Real-Time PCR System. The reaction mixtures (25 μL final volume) contained 12.5 μL Fast SYBR Green Master Mix, 500 nM of each primer and 10 ng genomic DNA. The reaction conditions were 95° C. for 20 s, followed by 45 cycles of 95° C. for 3 s and 60° C. for 30 s. The relative mtDNA copy number was analyzed by the 2-ΔΔCt method.

M-MITF = M-MITF gene expression by qRT-PCR in WM9 cells; assay type: cell-based, human; details: WM9, 48 h, Gamitrinib 1 μM added to PLX4720 10 μM and PD0325901 1 μM
Procedure: One μg total mRNA was reverse transcribed using a Maxima First Strand cDNA Synthesis Kit for qRT-PCR (Thermo Fisher). Fast SYBR® Green Master Mix (Life Technologies) was used with cDNA template and primers to evaluate the expression of target genes and GAPDH. Primers used were purchased from Integrated DNA Technologies. Amplifications were performed using an Applied Biosystems® 7500 Real-Time PCR System (Life Technologies). All experiments were performed in triplicate. Expression ratios of controls were normalized to 1. Please see Extended Experimental Procedures for the list of PCR primer sequences.

[2] = system: 1205Lu melanoma xenograft; assay: Tumor volume of 1205Lu melanoma xenografts; assay type: in vivo, mice; details: 1205Lu xenografts; for % T/C (percentages of tumor volumes): Table 7, 17 days, alone or with PLX4720 200 mg/kg diet
2-NBDG uptake = assay: Uptake of 2-NBDG in WM9 cells; assay type: cell-based, human; details: WM9, 72 h, Gamitrinib combined with PLX4720 10 μM
Procedure: Cells were washed with HBSS and were then pre-incubated with Opti-MEM (Life Technologies) for 15 min. Cells were then incubated with DMEM deprived of glucose, glutamine and phenol red (Life Technologies, cat. #A14430-01) and Fetal Bovine Serum that was supplemented with 2-NBDG (Cayman Chemical, cat. #11046) at […] for 1 h. Cells were washed with HBSS and were immediately harvested for FACS analysis.

WM9 melanoma cells = assay: Induction of apoptosis and cell death by PSVue 643 staining in WM9 melanoma cells; assay type: cell-based, human; details: WM9, 72 h
Procedure: Adherent melanoma cells were harvested with 0.05% Trypsin-EDTA and were washed once with 1×DPBS. Cells were labeled with CellTrace™ Violet according to the manufacturer's protocol and were allowed to adhere to tissue culture plates overnight following the drug treatment. […] Cells were then immediately subjected to FACS analysis using a BD LSR II flow cytometer and at least 5,000 cells per sample were acquired.
Cell suspensions were kept in the dark at room temperature for 5 min. 0.2 ml 1×PBS supplemented with 10% FBS was added to each cell suspension and cells were immediately analyzed by BD LSRII.
Briefly, autophagic flux was assessed by FACS analysis of WM9 cells expressing the mCherry-eGFPLC3B construct that were transfected with the indicated siRNAs targeting autophagy and ER stress response and treated for 72 h with DMSO or the combination of PLX4720 at 10 μM and PD0325901 at 1 μM. The data represent the average of 2 biological replicates. […] Autophagic flux was assessed by FACS analysis of WM9 cells expressing the mCherry-eGFPLC3B construct treated for 72 h with Gamitrinib at 1 μM or Spautin-1 at 10 μM in combination with PLX4720 at 10 μM/PD0325901 at 1 μM. Cells treated with DMSO were used as the control for setting up the gate.

WM4265-2 cells = assay: Tumor volume of WM4265-2 xenografts; assay type: in vivo, mice; details: WM4265-2 xenografts (immunotherapy-progressed patient PDX line); Gamitrinib 10 mg/kg
Procedure: Mice were xenografted with WM4265-2 cells until tumors were established and then treated with Gamitrinib (10 mg/kg).

[3] = system: BRAF-mutated resistant melanoma cell lines; assay: Induction of apoptosis and cell death by PSVue 643 staining in acquired drug resistant melanoma cell lines; assay type: cell-based, human
Procedure: Adherent melanoma cells were harvested with 0.05% Trypsin-EDTA and were washed once with 1×DPBS. Cells were labeled with CellTrace™ Violet according to the manufacturer's protocol and were allowed to adhere to tissue culture plates overnight following the drug treatment. At indicated time points following the drug treatment, floating and adherent cells were pooled, washed with Hank's Buffered Salt Solution (HBSS) and then stained with CellROX Deep Red at 2.5 μM or MitoTracer Red at 0.25 μM for 1 h in a 37° C. humidified incubator supplied with 5% CO2. Cells were then pelleted, washed with DPBS, and stained with PSVue® 643 at 5 μM diluted in TES buffer for 5 min in the dark. Cells were then immediately subjected to FACS analysis using a BD LSR II flow cytometer and at least 5,000 cells per sample were acquired.
Labeling cells with Propidium Iodide and PSVue—Following centrifugation, cells were resuspended in 0.1 ml 1×PBS, co-stained with propidium iodide at 1 μg/ml and PSVue® 643 at 5 μM, and then stained with PSVue® 643 at 5 μM alone. Cell suspensions were kept in the dark at room temperature for 5 min. 0.2 ml 1×PBS supplemented with 10% FBS was added to each cell suspension and cells were immediately analyzed by BD LSRII.
Separation of live cells from dead cells including early apoptotic cells—Based on the fluorescence of PSVue 643, cells are separated into 2 subpopulations, live cells (PSVue 643Neg) and dead cells including early apoptotic cells (PSVue 643Pos).

WM9 cells = assay: Cell viability by CellTiter Glo in WM9 cells; assay type: cell-based, human; details: WM9, 72 h, Gamitrinib titrated with PLX4720 10 μM or PLX4720 10 μM and PD0325901 1 μM
Procedure: Cell viability was measured by the MTT assay or CellTiter-Glo luminescent cell viability assay (Promega). For the assessment of cell clonogenicity, cells were seeded into 12-well tissue culture plates at a density of 500 cells/well as biological triplicates in drug-free medium. Medium was refreshed every 3 or 4 days for 14 days. Colonies were then stained overnight with methanol containing 0.05% crystal violet. After extensive washing with distilled H2O, cells were air-dried and subjected to image acquisition using a Nikon D200 DLSR camera.

Substance: Gamitrinib
- mitochondrial DNA copy number [1]: decreases in mitochondrial DNA copy number
- M-MITF expression up-regulated by MAPK pathway inhibitors (M-MITF): further down-regulated
- tumor growth ([2]; Gamitrinib 15 mg/kg alone): significantly impaired tumor growth
- % T/C (percentages of tumor volumes) ([2]; gamitrinib 5 mg/kg QD i.p.): 124.59%
- % T/C (percentages of tumor volumes) ([2]; gamitrinib 15 mg/kg QD i.p.): 57.3%
- uptake of 2-NBDG (2-NBDG uptake): decreased uptake of 2-NBDG
- induction of apoptosis and cell death (WM9 melanoma cells; Gamitrinib 1 or 2.5 μM vs 0 or 0.5 μM, with PLX4720 10 μM and PD0325901 1 μM): more remarkable induction of apoptosis and cell death
- apoptosis and cell death, compared with other inhibitors of the drug screen (WM9 melanoma cells; titrated doses combined with MAPK pathway inhibitors (PLX4720 10 μM, PD0325901 1 μM)): greater increase in apoptosis and cell death
- tumor growth (WM4265-2 cells): significantly inhibited tumor growth
- cell death in combination therapy resistant (CR) cell line ([3]; 1 CR cell line (WM9 CR), Gamitrinib 1 and 2.5 μM, 48 h): significantly induced cell death
- resistant cell lines in which apoptosis and cell death was significantly induced ([3]; 23 resistant cell lines, 2.5 μM Gamitrinib, 72 hours): 18 of 23
- BRAF inhibitor resistant (BR) cell lines in which cell death was significantly induced ([3]; BR cell lines, PLX4720 10 μM plus Gamitrinib 2.5 μM, 48 h): 7 out of 9
- cell viability (WM9 cells): significantly impaired cell viability
